Data on 20 molecules can be found in patent publication US20250122222A1, “HETEROCYCLIC COMPOUNDS AND METHODS OF USE” (AMGEN INC., priority 2021, published 2025).

Experiment [1] addresses His-tagged KRAS G12D protein (Homo sapiens, UniProt P01116, G12D). The experiment in a line: KRAS G12D TR-FRET assay (binding). Conditions: biotinylated KRPep-2d substrate, GDP in assay buffer. (In general: TR-FRET usually uses a lanthanide donor and a delayed reading to cut background.)
Protocol: The plate was incubated for 30 minutes at room temperature. Biotinylated KRPep-2d substrate (Amgen) was diluted to 20 nM in Assay Buffer and 2 L was added to all wells and incubated for 1 hour at room temperature. Detection Reagent (0.4 nM LANCE Eu-W1024 Anti-6xHis (Perkin Elmer AD0401), 5 nM streptavidin-d^2 (Cisbio 610SADLA)) was prepared in Assay Buffer, then 4 μL was added to the plate and incubated for 1 hour at room temperature.
Experiment [2] concerns Phosphorylation of ERK1/2 in AsPC-1 cells. The experiment can be described thus: Phospho-ERK1/2 MSD assay. Type of experiment: cell-based. As for the experimental part: Sixteen hours prior to compound treatment, AsPC-1 cells were seeded in 96-well cell culture plates at a density of 25,000 cells/well and incubated at 37° C., 5% CO2. A compound dose-response titration was diluted in growth media, added to appropriate wells of a cell culture plate, and then incubated at 37° C., 5% CO2 for 2 hours.

Setting [3] is: Homo sapiens, ASPC1, read-out: 2 h p-ERK (AsPC-1 cells), IC50 (μM), 2 hours compound treatment.

Where two headings read alike, the source gives them in different places.

Chain of His-tagged KRAS G12D protein (P01116 1-188 isoform P01116-2 G12D): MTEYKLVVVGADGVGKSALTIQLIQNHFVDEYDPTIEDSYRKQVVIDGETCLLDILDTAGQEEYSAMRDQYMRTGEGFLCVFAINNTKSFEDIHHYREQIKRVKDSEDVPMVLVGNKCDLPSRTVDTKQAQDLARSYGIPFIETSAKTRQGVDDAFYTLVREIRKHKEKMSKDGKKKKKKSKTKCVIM

What is called IC50 is the point on the concentration scale where inhibition reaches its midpoint. For `CCc1c(F)ccc2cc(O)cc(-c3ncc4c(N5CCOCC(C#N)C5)nc(OC[C@@]56CCCN5C[C@H](F)C6)nc4c3F)c12` (stereo partly drawn) [Example 61, 4-(7-(8-Ethyl-7-fluoro-3-hydroxy-naphthalen-1-yl)-8-fluoro-2-(((2R,7aS)-2-fluorotetrahydro-1H-pyrrolizin-7a(5H)-yl)meth-oxy)-pyrido[4,3-d]pyrimidin-4-yl)-1,4-oxazepane-6-carbonitrile], the IC50 in experiment [1] amounted to 3 nM; in experiment [2] (setting [3]), 0.193 µM.
Turning to `CCc1cccc2cc(O)cc(-c3ncc4c(N5CCOC[C@@](C)(O)C5)nc(OC[C@@]56CCCN5C[C@H](F)C6)nc4c3F)c12` [Example 78, (S)-4-(7-(8-Ethyl-3-hydroxynaphthalen-1-yl)-8-fluoro-2-(((2R,7aS)-2-fluorotetrahydro-1H-pyrrolizin-7a(5H)-yl)methoxy)pyrido [4,3-d]pyrimidin-4-yl)-6-methyl-1,4-oxazepan-6-ol], the figures for the IC50 in experiment [1] and in experiment [2] (setting [3]) were 1 nM and 0.013 µM, respectively.
For `CCc1cccc2cc(O)cc(-c3ncc4c(N5CCCOCC5)nc(OC[C@@H]5C[C@@H](F)CN5C)nc4c3F)c12` [Example 32, 5-Ethyl-4-(8-fluoro-2-(((2S,4R)-4-fluoro-1-methylpyrrolidin-2-yl)methoxy)-4-(1,4-oxazepan-4-yl)pyrido[4,3-d]pyrimidin-7-yl)naphthalen-2-ol], in that order: 13 nM and 0.966 µM.
Consider `CCc1c(F)ccc2cc(O)cc(-c3ncc4c(N5CCOC[C@](O)(CC)C5)nc(OC[C@@]56CCCN5C[C@H](F)C6)nc4c3F)c12` [Example 79, (S)-6-Ethyl-4-(7-(8-ethyl-7-fluoro-3-hydroxynaphthalen-1-yl)-8-fluoro-2-(((2R,7aS)-2-fluorotetrahydro-1H-pyrrolizin-7a(5H)-yl)methoxy)pyrido [4,3-d]pyrimidin-4-yl)-1,4-oxazepan-6-o1], for which the IC50 in experiment [1] was determined as 1 nM; in experiment [2] (read-out: 2 h p-ERK (AsPC-1 cells), IC50, 2 hours compound treatment) it was 0.024 µM.
`CCc1c(F)ccc2cc(O)cc(-c3ncc4c(N5CC[S+]([O-])CC5)nc(OC[C@@]56CCCN5C[C@H](F)C6)nc4c3F)c12` [Example 34, 4-(7-(8-Ethyl-7-fluoro-3-hydroxynaphthalen-1-yl)-8-fluoro-2-(((2R,7aS)-2-fluorotetrahydro-1H-pyrrolizin-7a(5H)-yl)methoxy)pyrido[4,3-d]pyrimidin-4-yl)thiomorpholine 1-oxide]: the IC50 turned out to be 1 nM in experiment [1] and 0.393 µM in experiment [2] (setting [3]).
On to `Oc1cc(-c2ncc3c(N4CCCOCC4)nc(OCC45CCCN4CCC5)nc3c2F)c2ccccc2c1` [Example 13, 4-(8-Fluoro-4-(1,4-oxazepan-4-yl)-2-((tetrahydro-1H-pyrrolizin-7a(5H)-yl)methoxy)pyrido [4,3-d]pyrimidin-7-yl)naphthalen-2-ol], for which the IC50 amounted to 11 nM in experiment [1] and 4.18 µM in experiment [2] (setting [3]).
The like results for `CCc1cccc2cc(O)cc(-c3ncc4c(N5CC6COC(C6)C5)nc(OC[C@@]56CCCN5C[C@H](F)C6)nc4c3F)c12` (stereo partly drawn) [Example 10, 4-(4-(6-Oxa-3-azabicyclo[3.2.1]octan-3-yl)-8-fluoro-2-(((2R,7aS)-2-fluorotetrahydro-1H-pyrrolizin-7a(5H)-yl)methoxy)pyrido [4,3-d]pyrimidin-7-yl)-5-ethylnaphthalen-2-ol] were, in that order, 8 nM and 0.277 µM.
The like results for `CCc1c(F)ccc2cc(O)cc(-c3ncc4c(N5CCOCC(O)(C6CC6)C5)nc(OC[C@@]56CCCN5C[C@H](F)C6)nc4c3F)c12` (stereo partly drawn) [Example 74, 6-Cyclopropyl-4-(7-(8-ethyl-7-fluoro-3-hydroxynaphthalen-1-yl)-8-fluoro-2-(((2R,7aS)-2-fluorotetrahydro-1H-pyrrolizin-7a(5H)-yl)methoxy)pyrido[4,3-d]pyrimidin-4-yl)-1,4-oxazepan-6-ol] were, in that order, 4 nM and 0.436 µM.
For `C#CC1(O)COCCN(c2nc(OC[C@@]34CCCN3C[C@H](F)C4)nc3c(F)c(-c4cc(O)cc5ccc(F)c(CC)c45)ncc23)C1` (stereo partly drawn) [Example 70, 4-(7-(8-ethyl-7-fluoro-3-hydroxynaphthalen-1-yl)-8-fluoro-2-(((2R,7aS)-2-fluorotetrahydro-1H-pyrrolizin-7a(5H)-yl)methoxy)pyrido[4,3-d]pyrimidin-4-yl)-6-ethynyl-1,4-oxazepan-6-ol], in that order: 1 nM and 0.643 µM.
For `CN1C[C@H](F)C[C@H]1COc1nc(N2CCCOCC2)c2cnc(-c3cc(O)cc4ccccc34)c(F)c2n1` [Example 16, 4-(8-Fluoro-2-(((2S,4R)-4-fluoro-1-methylpyrrolidin-2-yl)methoxy)-4-(1,4-oxazepan-4-yl)pyrido[4,3-d]pyrimidin-7-yl)naphthalen-2-ol], the IC50 in experiment [1] turned out to be 73 nM; in experiment [2] (setting [3]), 4.83 µM.
For the molecule `CCc1cccc2cc(O)cc(-c3ncc4c(N5CCCOCC5)nc(OC[C@@]56CCCN5C[C@H](F)C6)nc4c3F)c12` [Example 2, 5-Ethyl-4-(8-fluoro-2-(((2R,7aS)-2-fluorotetrahydro-1H-pyrrolizin-7a(5H)-yl)methoxy)-4-(1,4-oxazepan-4-yl)pyrido[4,3-d]pyrimidin-7-yl)naphthalen-2-ol], the IC50 was determined as 1 nM in experiment [1] and 0.033 µM in experiment [2] (setting [3]).
The like results for `CCc1c(F)ccc2cc(O)cc(-c3ncc4c(N5C[C@H]6COC[C@@H](C5)O6)nc(OC[C@@]56CCCN5C[C@H](F)C6)nc4c3F)c12` [Example 21, 4-(4-((1R,5S)-3,9-Dioxa-7-azabicyclo[3.3.1]nonan-7-yl)-8-fluoro-2-(((2R,7aS)-2-fluorotetrahydro-1H-pyrrolizin-7a(5H)-yl)methoxy)pyrido [4,3-d]pyrimidin-7-yl)-5-ethyl-6-fluoronaphthalen-2-ol] were, in that order, 11 nM and 0.621 µM.
The like results for `CCc1c(F)ccc2cc(O)cc(-c3ncc4c(N5CCOC(CO)CC5)nc(OC[C@@]56CCCN5C[C@H](F)C6)nc4c3F)c12` (stereo partly drawn) [Example 57, 5-Ethyl-6-fluoro-4-(8-fluoro-2-(((2R, 7aS)-2-fluorotetra-hydro-1H-pyrrolizin-7a(5H)-yl)methoxy)-4-(7-(hydroxymeth-yl)-1,4-oxazepan-4-yl)pyrido[4,3-d]pyrimidin-7-yl)-naphthalen-2-ol] were, in that order, 13 nM and 5.95 µM.
The like results for `CCc1c(F)ccc2cc(O)cc(-c3ncc4c(N5CC6CC5CS6(=O)=O)nc(OC[C@@]56CCCN5C[C@H](F)C6)nc4c3F)c12` (stereo partly drawn) [Example 59, 5-(7-(8-Ethyl-7-fluoro-3-hydroxy-naphthalen-1-yl)-8-fluoro-2-(((2R,7aS)-2-fluorotetrahydro-1H-pyrrolizin-7a(5H)-yl)meth-oxy)pyrido[4,3-d]pyrimidin-4-yl)-2-thia-5-azabicyclo [2.2.1]heptane 2,2-dioxide] were, in that order, 14 nM and 3.63 µM.
`CCc1c(F)ccc2cc(O)cc(-c3ncc4c(N5CCOC[C@@H](OC)C5)nc(OC[C@@]56CCCN5C[C@H](F)C6)nc4c3F)c12` [Example 39, 5-Ethyl-6-fluoro-4-(8-fluoro-2-(((2R,7aS)-2-fluorotetrahydro-1H-pyrrolizin-7a(5H)-yl)methoxy)-4-((S)-6-methoxy-1,4-oxazepan-4-yl)pyrido[4,3-d]pyrimidin-7-yl)naphthalen-2-ol]: the IC50 in experiment [1] amounted to 5 nM; in experiment [2] (setting [3]) it was 0.171 µM.
The like results for `CCc1c(F)ccc2cc(O)cc(-c3ncc4c(N5CCSCC5)nc(OC[C@@]56CCCN5C[C@H](F)C6)nc4c3F)c12` [Example 4, 5-Ethyl-6-fluoro-4-(8-fluoro-2-(((2R,7aS)-2-fluorotetrahydro-1H-pyrrolizin-7a(5H)-yl)methoxy)-4-thiomorpholino-pyrido[4,3-d]pyrimidin-7-yl)naphthalen-2-ol] were, in that order, 4 nM and 0.486 µM.
For `CCc1c(F)ccc2cc(O)cc(-c3ncc4c(N5CCCS(=O)(=O)CC5)nc(OC[C@@]56CCCN5C[C@H](F)C6)nc4c3F)c12` [Example 37, 4-(7-(8-Ethyl-7-fluoro-3-hydroxynaphthalen-1-yl)-8-fluoro-2-(((2R,7aS)-2-fluorotetrahydro-1H-pyrrolizin-7a(5H)-yl)methoxy)pyrido[4,3-d]pyrimidin-4-yl)-1,4-thiazepane 1,1-dioxide], in that order: 11 nM and 2.66 µM.
For the molecule `CCc1c(F)ccc2cc(O)cc(-c3ncc4c(N5CCOC(C(N)=O)C5)nc(OC[C@@]56CCCN5C[C@H](F)C6)nc4c3F)c12` (stereo partly drawn) [Example 76, 4-(7-(8-Ethyl-7-fluoro-3-hydroxynaphthalen-1-yl)-8-fluoro-2-(((2R,7aS)-2-fluorotetrahydro-1H-pyrrolizin-7a(5H)-yl)methoxy)pyrido[4,3-d]pyrimidin-4-yl)morpholine-2-carboxamide], the IC50 in experiment [1] is 6 nM; in experiment [2] (setting [3]), 3.33 µM.
The like results for `CCc1c(F)ccc2cc(O)cc(-c3ncc4c(N5CCO[C@H](C)C5)nc(OC[C@@]56CCCN5C[C@H](F)C6)nc4c3F)c12` [Example 52, 5-Ethyl-6-fluoro-4-(8-fluoro-2-(((2R,7aS)-2-fluorotetrahydro-1H-pyrrolizin-7a(5H)-yl)meth-oxy)-4-((R)-2-methylmorpho-lino)-pyrido[4,3-d]pyrimidin-7-yl)-naphthalen-2-ol] were, in that order, 33 nM and 1.28 µM.
For `Oc1cc(-c2ncc3c(N4CCCOCC4)nc(OC[C@@]45CCCN4C[C@H](F)C5)nc3c2F)c2c(F)c(F)ccc2c1` [Example 3, 5,6-Difluoro-4-(8-fluoro-2-(((2R,7aS)-2-fluorotetrahydro-1H-pyrrolizin-7a(5H)-yl)methoxy)-4-(1,4-oxazepan-4-yl)pyrido[4,3-d]pyrimidin-7-yl)naphthalen-2-ol], in that order: 2 nM and 0.047 µM.
